# Laboratory results: patent publication US9826761B2, “Compositions and methods for mitigating dietary sulfur in animals” (SarTec Corporation, priority 2008, dated 2017)
# Assays:
# [1] = Titration of approx. 200 mM sulfide in fresh rumen fluid with 1 M metal chloride, silver/sulfide electrode; parameters: species or system Holstein cows; details: for mVolts (Negative Value): ~200 mM sulfide, fresh rumen fluid
# Protocol: Fresh undiluted rumen fluid was obtained from rumen fistulated Holstein cows. 1.5 ml of a saturated solution of Na2S in water (approximately 2.7 M) was added to 18.5 ml of the rumen fluid. Sodium sulfide solutions were quantified by titration using a silver/sulfide electrode (Orion, Ion Plus Silver/Sulfide 9616BNWP) and a commercial lead standard (0.1 M Pb^2+, Orion 948206). The final concentration for sulfide ion in the rumen fluid was approximately 200 mM. This solution was then titrated with a 1 M solution of MnCl2 in water. The progress of the reaction was followed using the silver/sulfide electrode.
# Fresh undiluted rumen fluid was obtained from rumen fistulated Holstein cows. 1.5 ml of saturated solution of Na2S in water (approximately 2.7 M) was added to 18.5 ml of the rumen fluid. The final concentration of sulfide ion in the rumen fluid was approximately 200 mM. This solution was then titrated with a 1 M solution of FeCl2 in water. The progress of the reaction was followed using the same silver/sulfide electrode set-up described above (Orion, Ion Plus Silver/Sulfide 9616BNWP).
# Data taken from Examples 1 and 2 above were plotted together in order to gauge the relative efficacy of MnCl2 versus FeCl2 in removing sulfide ion from rumen fluid.
# [2] = Precipitating activity: rumen fluid containing manganese compound titrated with 1.0M Na2S, silver/sulfide electrode; parameters: species or system Holstein cows; details: 200 mM MnO(II) in rumen fluid
# Protocol: Next, 0.28 g of MnO(II) was placed in a 100 ml beaker and 20 ml of rumen fluid was added. Then 0.17 g of MnO2(IV) was placed in 100 ml beaker and 20 ml of rumen fluid was added. Each of these compositions, in addition to a rumen fluid control, was then titrated with a 1.0M solution of Na2S. The progress of the reaction was followed using the same silver/sulfide electrode set-up described above (Orion, Ion Plus Silver/Sulfide 9616BNWP).
smiles,measurement,setting,value
"[Cl][Fe][Cl] [FeCl2, iron (II) chloride]",concentration of sulfide ion within the rumen fluid,[1]; addition of 1 M titrant to ~200 mM sulfide in fresh rumen fluid,effective to reduce the concentration of sulfide ion
same,"total sulfide ion concentrations in the rumen fluid, FeCl2 versus MnCl2",[1]; data of Examples 1 and 2 plotted together (FIG. 3),lower total sulfide ion concentrations
same,mVolts (Negative Value),[1]; titrant volume 0.0 of 1M FeCl2,937.5 mVolts
same,mVolts (Negative Value),[1]; titrant volume 0.1 of 1M FeCl2,937.5 mVolts
same,mVolts (Negative Value),[1]; titrant volume 0.4 of 1M FeCl2,935.1 mVolts
same,mVolts (Negative Value),[1]; titrant volume 0.6 of 1M FeCl2,906.2 mVolts
same,mVolts (Negative Value),[1]; titrant volume 0.8 of 1M FeCl2,926.7 mVolts
same,mVolts (Negative Value),[1]; titrant volume 1.0 of 1M FeCl2,916.9 mVolts
same,mVolts (Negative Value),[1]; titrant volume 1.3 of 1M FeCl2,905.8 mVolts
same,mVolts (Negative Value),[1]; titrant volume 1.5 of 1M FeCl2,886.6 mVolts
same,mVolts (Negative Value),[1]; titrant volume 1.7 of 1M FeCl2,869.4 mVolts
same,mVolts (Negative Value),[1]; titrant volume 1.9 of 1M FeCl2,849.4 mVolts
same,mVolts (Negative Value),[1]; titrant volume 2.1 of 1M FeCl2,833.9 mVolts
same,mVolts (Negative Value),[1]; titrant volume 2.4 of 1M FeCl2,817.3 mVolts
same,mVolts (Negative Value),[1]; titrant volume 2.6 of 1M FeCl2,816.8 mVolts
same,mVolts (Negative Value),[1]; titrant volume 2.8 of 1M FeCl2,767.2 mVolts
same,mVolts (Negative Value),[1]; titrant volume 3.0 of 1M FeCl2,735.5 mVolts
same,mVolts (Negative Value),[1]; titrant volume 3.5 of 1M FeCl2,634.0 mVolts
same,mVolts (Negative Value),[1]; titrant volume 3.7 of 1M FeCl2,622.8 mVolts
same,mVolts (Negative Value),[1]; titrant volume 3.9 of 1M FeCl2,616.3 mVolts
same,mVolts (Negative Value),[1]; titrant volume 4.1 of 1M FeCl2,610.8 mVolts
same,mVolts (Negative Value),[1]; titrant volume 4.3 of 1M FeCl2,607.2 mVolts
same,mVolts (Negative Value),[1]; titrant volume 4.5 of 1M FeCl2,603.3 mVolts
same,mVolts (Negative Value),[1]; titrant volume 4.8 of 1M FeCl2,600.0 mVolts
same,mVolts (Negative Value),[1]; titrant volume 5.0 of 1M FeCl2,595.7 mVolts
same,mVolts (Negative Value),[1]; titrant volume 5.5 of 1M FeCl2,590.0 mVolts
same,mVolts (Negative Value),[1]; titrant volume 6.0 of 1M FeCl2,586.5 mVolts
[O]=[Mn] [MnO(II)],mVolts,[2]; Vol 1M Na2S 0.0,604.6 mVolts
same,mVolts,[2]; Vol 1M Na2S 0.1,674.0 mVolts
same,mVolts,[2]; Vol 1M Na2S 0.2,702.9 mVolts
same,mVolts,[2]; Vol 1M Na2S 0.4,724.5 mVolts
same,mVolts,[2]; Vol 1M Na2S 0.5,745.7 mVolts
same,mVolts,[2]; Vol 1M Na2S 0.6,760.6 mVolts
same,mVolts,[2]; Vol 1M Na2S 0.7,777.3 mVolts
same,mVolts,[2]; Vol 1M Na2S 0.8,789.8 mVolts
same,mVolts,[2]; Vol 1M Na2S 0.9,803.7 mVolts
same,mVolts,[2]; Vol 1M Na2S 1.0,803.9 mVolts
same,mVolts,[2]; Vol 1M Na2S 1.1,825.2 mVolts
same,mVolts,[2]; Vol 1M Na2S 1.3,833.7 mVolts
same,mVolts,[2]; Vol 1M Na2S 1.4,843.1 mVolts
same,mVolts,[2]; Vol 1M Na2S 1.5,848.0 mVolts
same,mVolts,[2]; Vol 1M Na2S 1.6,852.1 mVolts
